Laboratory results from BigSolDB 2.1.

CC[C@H]1OC(=O)[C@H](C)[C@@H](O[C@H]2C[C@@](C)(OC)[C@@H](O)[C@H](C)O2)[C@H](C)[C@@H](O[C@@H]2O[C@H](C)C[C@H](N(C)C)[C@H]2O)[C@](C)(O)C[C@@H](C)C(=O)[C@H](C)[C@@H](O)[C@]1(C)O.O.O
solubility (mole fraction)
Conditions | 293.2 K | 298 K | 303.15 K | 308 K | 313.1 K | 318 K | 323 K
in acetone | 0.00914 | 0.0131 | 0.0217 | 0.0293 | 0.0433 | 0.0542 | 0.0804
in chloroform | 0.00391 | 0.0054 | 0.00875 | 0.0134 | 0.0216 | 0.0313 | 0.0473
in ethanol | 0.0148 | 0.0192 | 0.0254 | 0.0338 | 0.046 | 0.062 | 0.081
in isopropanol | 0.003 | 0.00401 | 0.00556 | 0.00754 | 0.00995 | 0.0143 | 0.0194
in methanol | 0.0116 | 0.0143 | 0.0179 | 0.0215 | 0.0253 | 0.0305 | 0.0373
in water | 5.4e-05 | 4.7e-05 | 4.2e-05 | 4e-05 | 3.8e-05 | 3.5e-05 | 3.4e-05
